For 11 molecules, MIC results are on record in PMC4494766 (Monatshefte Fur Chemie, 2011).

For this experiment, the system named is M. tuberculosis wild-type strain sp. 210 resistant to PAS, INH, ETB and RFP. Kind of experiment: Tuberculostatic activity, test-tube successive dilution in Youmans' medium. It is filed as cell-based. Particulars: Mycobacterium tuberculosis.

≈ marks a conversion by molar mass, not a printed value.

Broadly, the MIC is the least concentration at which growth counts as inhibited. A lower MIC goes with a more susceptible organism. In turn, `CSC(=NNC(=O)c1ccccc1Cl)SC` [Compound 2, Dimethyl 2-chlorobenzoylcarbonohydrazonodithioate] showed an MIC of 50 µg/mL (≈ 182 µM).
`COc1ccc(C(=O)NN=C(SC)SC)cc1` [Compound 11, Dimethyl 4-methoxybenzoylcarbonohydrazonodithioate] displayed an MIC of 25 µg/mL (≈ 92.5 µM).
Take `CSC(=NNC(=O)c1ccc(Cl)cc1Cl)SC` [Compound 4, Dimethyl 2,4-dichlorobenzoylcarbonohydrazonodithioate]: it took 50 µg/mL (≈ 162 µM) to inhibit growth (MIC).
For `CSC(=NNC(=O)c1ccccc1[N+](=O)[O-])SC` [Compound 6, Dimethyl 2-nitrobenzoylcarbonohydrazonodithioate] the value was 50 µg/mL (≈ 175 µM); for `CSC(=NNC(=O)c1ccc(Cl)c(Cl)c1)SC` [Compound 5, Dimethyl 3,4-dichlorobenzoylcarbonohydrazonodithioate], 12.5 µg/mL (≈ 40.4 µM); for `COc1ccc(CC(=O)NN=C(SC)SC)cc1OC` [Compound 13, Dimethyl 2-(3,4-dimethoxyphenyl)acetylcarbonohydrazonodithioate], 50 µg/mL (≈ 159 µM).
The molecule `COc1cc(C(=O)NN=C(SC)SC)cc(OC)c1OC` [Compound 12, Dimethyl 3,4,5-trimethoxybenzoylcarbonohydrazonodithioate] returned an MIC of 50 µg/mL (≈ 151 µM).
For `CSC(=NNC(=O)c1ccc(Cl)cc1)SC` [Compound 3, Dimethyl 4-chlorobenzoylcarbonohydrazonodithioate] the value was 25 µg/mL (≈ 91 µM); for `CSC(=NNC(=O)c1ccccc1O)SC` [Compound 8, Dimethyl 2-hydroxybenzoylcarbonohydrazonodithioate], 25 µg/mL (≈ 97.5 µM).
With `CSC(=NNC(=O)c1cccc(O)c1)SC` [Compound 9, Dimethyl 3-hydroxybenzoylcarbonohydrazonodithioate], the MIC is 25 µg/mL (≈ 97.5 µM).
As for `CSC(=NNC(=O)c1ccc(O)cc1)SC` [Compound 10, Dimethyl 4-hydroxybenzoylcarbonohydrazonodithioate], the figure is 25 µg/mL (≈ 97.5 µM).
